The values that follow come from ChEMBL document CHEMBL3431459, “Roche carnitine palmitoyltransferase modulator screening data (supplementary data associated with the publication CHEMBL2216752)”.

Values after ≈ are worked out from the molar mass of the structure shown.

In series [1] the target is T1, Carnitine O-palmitoyltransferase 1, muscle isoform (Homo sapiens, UniProt Q92523).
T1 sequence (Q92523 whole entry): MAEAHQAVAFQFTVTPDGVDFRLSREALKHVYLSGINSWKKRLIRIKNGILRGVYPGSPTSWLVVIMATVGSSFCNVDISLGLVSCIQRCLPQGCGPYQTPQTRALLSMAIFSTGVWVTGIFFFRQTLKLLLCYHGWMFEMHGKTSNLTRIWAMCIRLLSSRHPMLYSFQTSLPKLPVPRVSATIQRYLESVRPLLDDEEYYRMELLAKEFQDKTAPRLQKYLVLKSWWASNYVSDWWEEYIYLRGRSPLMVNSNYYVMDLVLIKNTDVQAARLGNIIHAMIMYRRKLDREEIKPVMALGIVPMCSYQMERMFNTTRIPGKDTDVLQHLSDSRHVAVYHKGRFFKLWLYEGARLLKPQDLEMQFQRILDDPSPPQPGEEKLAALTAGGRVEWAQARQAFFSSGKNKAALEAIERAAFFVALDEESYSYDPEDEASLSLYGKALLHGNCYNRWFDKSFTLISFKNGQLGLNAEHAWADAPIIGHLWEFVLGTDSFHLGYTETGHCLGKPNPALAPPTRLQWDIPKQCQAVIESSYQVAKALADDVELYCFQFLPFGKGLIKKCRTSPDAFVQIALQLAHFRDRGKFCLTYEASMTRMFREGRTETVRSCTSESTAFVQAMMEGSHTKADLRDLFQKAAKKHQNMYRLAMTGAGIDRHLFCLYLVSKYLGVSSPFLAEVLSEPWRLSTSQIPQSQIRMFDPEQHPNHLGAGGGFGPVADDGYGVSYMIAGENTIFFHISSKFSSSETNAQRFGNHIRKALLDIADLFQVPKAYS
The experiment in a line: SUPPLEMENTARY: Inhibition of Carnitine palmitoyltransferase 1, muscle isoform. Set-up: species or system Muscle tissue.

In series [2] the target is T2, Carnitine O-palmitoyltransferase 2, mitochondrial (Homo sapiens, UniProt P23786).
T2 sequence (P23786 whole entry): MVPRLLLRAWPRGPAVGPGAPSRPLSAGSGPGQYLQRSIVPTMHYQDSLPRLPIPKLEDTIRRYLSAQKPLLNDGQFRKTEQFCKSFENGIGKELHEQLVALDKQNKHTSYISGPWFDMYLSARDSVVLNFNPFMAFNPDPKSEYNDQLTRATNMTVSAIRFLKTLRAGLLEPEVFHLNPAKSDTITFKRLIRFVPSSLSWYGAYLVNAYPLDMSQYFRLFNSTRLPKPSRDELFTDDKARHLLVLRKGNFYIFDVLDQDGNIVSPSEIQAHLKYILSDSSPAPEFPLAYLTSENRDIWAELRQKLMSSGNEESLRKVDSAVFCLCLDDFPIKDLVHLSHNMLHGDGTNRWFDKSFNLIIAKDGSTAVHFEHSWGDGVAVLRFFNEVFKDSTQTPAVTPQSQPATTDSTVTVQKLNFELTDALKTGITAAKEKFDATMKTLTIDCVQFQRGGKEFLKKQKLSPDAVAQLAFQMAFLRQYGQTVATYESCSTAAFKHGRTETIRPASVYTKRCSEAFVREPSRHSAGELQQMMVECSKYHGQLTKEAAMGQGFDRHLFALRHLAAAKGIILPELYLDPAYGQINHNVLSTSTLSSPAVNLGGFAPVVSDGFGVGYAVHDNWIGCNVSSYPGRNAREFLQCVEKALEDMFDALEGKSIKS
The experiment in a line: (§1) SUPPLEMENTARY: Inhibition of Carnitine palmitoyltransferase 2.

In series [3] the target is T3, Carnitine O-palmitoyltransferase 2, mitochondrial (Rattus norvegicus, UniProt P18886).
T3 sequence (P18886 whole entry): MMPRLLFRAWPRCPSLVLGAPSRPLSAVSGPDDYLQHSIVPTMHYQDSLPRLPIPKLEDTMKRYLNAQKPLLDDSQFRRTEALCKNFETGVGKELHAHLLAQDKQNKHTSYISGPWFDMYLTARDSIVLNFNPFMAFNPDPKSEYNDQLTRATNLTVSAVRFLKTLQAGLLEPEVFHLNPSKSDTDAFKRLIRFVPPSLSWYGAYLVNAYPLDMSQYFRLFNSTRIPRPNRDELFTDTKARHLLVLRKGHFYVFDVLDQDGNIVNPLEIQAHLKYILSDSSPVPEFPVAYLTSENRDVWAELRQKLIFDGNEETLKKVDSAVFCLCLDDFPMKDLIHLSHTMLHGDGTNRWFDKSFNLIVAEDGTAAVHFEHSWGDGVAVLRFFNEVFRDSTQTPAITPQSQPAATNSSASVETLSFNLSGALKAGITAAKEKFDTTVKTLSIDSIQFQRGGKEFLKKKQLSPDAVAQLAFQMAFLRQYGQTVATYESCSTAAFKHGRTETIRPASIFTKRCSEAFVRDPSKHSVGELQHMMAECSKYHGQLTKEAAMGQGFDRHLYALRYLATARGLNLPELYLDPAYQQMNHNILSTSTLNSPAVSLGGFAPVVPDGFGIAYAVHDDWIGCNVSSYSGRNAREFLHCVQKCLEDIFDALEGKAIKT
The series is described as §1.

In series [4] the target is T4, Carnitine O-palmitoyltransferase 1, liver isoform (Homo sapiens, UniProt P50416).
T4 sequence (P50416 whole entry): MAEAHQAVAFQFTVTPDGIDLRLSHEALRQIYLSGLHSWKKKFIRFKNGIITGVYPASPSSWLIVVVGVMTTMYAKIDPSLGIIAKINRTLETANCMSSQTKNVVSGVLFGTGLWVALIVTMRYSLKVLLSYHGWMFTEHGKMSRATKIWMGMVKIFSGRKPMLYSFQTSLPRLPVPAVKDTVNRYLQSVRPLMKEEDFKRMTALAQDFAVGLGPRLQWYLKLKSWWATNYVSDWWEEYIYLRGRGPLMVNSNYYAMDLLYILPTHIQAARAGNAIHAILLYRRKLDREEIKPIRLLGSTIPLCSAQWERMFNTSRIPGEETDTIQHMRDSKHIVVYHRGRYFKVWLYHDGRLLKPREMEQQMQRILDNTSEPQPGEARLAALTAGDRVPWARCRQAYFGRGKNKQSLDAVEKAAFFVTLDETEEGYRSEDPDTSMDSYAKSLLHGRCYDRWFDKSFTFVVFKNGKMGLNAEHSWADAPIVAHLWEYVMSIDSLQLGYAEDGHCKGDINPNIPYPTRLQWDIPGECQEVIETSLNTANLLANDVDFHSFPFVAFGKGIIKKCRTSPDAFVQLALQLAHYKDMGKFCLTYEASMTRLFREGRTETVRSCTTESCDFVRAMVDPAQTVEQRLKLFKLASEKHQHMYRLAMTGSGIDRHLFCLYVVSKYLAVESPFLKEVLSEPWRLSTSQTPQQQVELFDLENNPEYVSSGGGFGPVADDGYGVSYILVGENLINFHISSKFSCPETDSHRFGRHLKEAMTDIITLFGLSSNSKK
The experiment in a line: (§2) SUPPLEMENTARY: Inhibition of Carnitine palmitoyltransferase 1, liver isoform.

Series [5] addresses T5, Carnitine O-palmitoyltransferase 1, liver isoform (Rattus norvegicus, UniProt P32198).
T5 sequence (P32198 whole entry): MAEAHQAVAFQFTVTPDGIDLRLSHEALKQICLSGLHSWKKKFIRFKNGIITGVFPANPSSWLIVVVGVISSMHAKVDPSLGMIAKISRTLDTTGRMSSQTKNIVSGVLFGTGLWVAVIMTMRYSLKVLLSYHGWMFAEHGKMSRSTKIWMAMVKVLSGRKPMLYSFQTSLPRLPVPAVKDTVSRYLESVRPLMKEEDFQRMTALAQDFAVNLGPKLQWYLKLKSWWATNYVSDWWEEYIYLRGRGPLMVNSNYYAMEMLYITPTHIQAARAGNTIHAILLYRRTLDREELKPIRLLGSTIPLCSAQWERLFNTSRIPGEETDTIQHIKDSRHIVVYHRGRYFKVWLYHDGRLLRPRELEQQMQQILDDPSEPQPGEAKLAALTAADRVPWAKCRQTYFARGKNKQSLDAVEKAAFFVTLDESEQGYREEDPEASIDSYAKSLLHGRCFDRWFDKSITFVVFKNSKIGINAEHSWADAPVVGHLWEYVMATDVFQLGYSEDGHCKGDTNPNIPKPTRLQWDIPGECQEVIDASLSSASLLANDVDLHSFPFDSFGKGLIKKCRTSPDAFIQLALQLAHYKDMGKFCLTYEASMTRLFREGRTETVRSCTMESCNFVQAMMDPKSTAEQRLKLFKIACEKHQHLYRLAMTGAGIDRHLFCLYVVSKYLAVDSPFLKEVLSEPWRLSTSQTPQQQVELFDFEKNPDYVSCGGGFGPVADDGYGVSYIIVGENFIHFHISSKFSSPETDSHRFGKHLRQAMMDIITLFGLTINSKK
Described as §2.

Series [6] is described as follows: SUPPLEMENTARY: Lyophilisation Solubility Assay (LYSA). To be noted: read-out: Kinetic_solubility. The series is classed as physicochemical.
A short description of series [7]: SUPPLEMENTARY: Lipophilicity (log D) Determination by high-throughput shake-flask. Type of series: physicochemical. The settings on record: octanol/water.
The nature of series [8]: SUPPLEMENTARY: PAMPA permeability assay. To be noted: read-out: Permeability. The series is classed as physicochemical.

Broadly, the IC50 is the midpoint of a concentration-inhibition curve. A high value points to a need for much substance. As a reminder, the logD is the decadic logarithm of the distribution of all forms, ionised or not, between an organic phase and buffer at a given pH. High values mean a more lipophilic compound, low ones a more hydrophilic compound.

Turning to `COc1ccc(Cl)cc1S(=O)(=O)N1CCOc2c(Cl)cc(C(=O)Nc3ncc(CC(=O)O)s3)cc21`, the IC50 in series [1] is 685 nM; in series [2], over 100000 nM; in series [3], over 100000 nM; in series [4] it was 68.8 nM; in series [5], 37.2 nM. The solubility kinetic in series [6] came to 5 µg/mL (≈ 8.95 µM). The same compound displayed a logD in series [7] of 2.27. The Papp in series [8] is 3.12 ×10⁻⁶ cm/s.

As to `COc1ccc(Cl)cc1S(=O)(=O)N1CCOc2c(Cl)cc(C(=O)Nc3ccn(CC(=O)O)n3)cc21`, the IC50 in series [1] is 5650 nM; in series [2], over 100000 nM; in series [3] it was over 100000 nM; in series [4], 218 nM; in series [5], 144 nM. In addition, the solubility kinetic in series [6] is 558 µg/mL (≈ 1030 µM). This compound returned a logD in series [7] of -0.79. The Papp in series [8] was 0.03 ×10⁻⁶ cm/s.
